Assay results as given in patent publication US9273028B2, “Heterocyclic tyrosine kinase inhibitors” (Biogen MA Inc., priority 2010, dated 2016).

Biological target: T1, BTK (Homo sapiens, UniProt Q06187)
T1 construct: purchased Upstate 14-552
Assay: In vitro BTK kinase assay (BTK-POLYGAT-LS)
Format: biochemical
Conditions: IC50 (10 uM ATP)
Description: In vitro BTK Kinase Assay
The purpose of the BTK in vitro assay is to determine compound potency against BTK through the measurement of IC50. […] For a typical assay, a 24 μL aliquot of a ATP/peptide master mix (final concentration; ATP 10 μM, polyGAT 100 nM) in kinase buffer (10 mM Tris-HCl pH 7.5, 10 mM MgCl2, 200 μM Na3PO4, 5 mM DTT, 0.01% Triton X-100, and 0.2 mg/ml casein) is added to each well. […] The assay is incubated for 30 minutes before being stopped with 28 μL of a 50 mM EDTA solution. […] The plate is covered and incubated for 45 minutes at room temperature.

T1 sequence (Q06187 whole entry): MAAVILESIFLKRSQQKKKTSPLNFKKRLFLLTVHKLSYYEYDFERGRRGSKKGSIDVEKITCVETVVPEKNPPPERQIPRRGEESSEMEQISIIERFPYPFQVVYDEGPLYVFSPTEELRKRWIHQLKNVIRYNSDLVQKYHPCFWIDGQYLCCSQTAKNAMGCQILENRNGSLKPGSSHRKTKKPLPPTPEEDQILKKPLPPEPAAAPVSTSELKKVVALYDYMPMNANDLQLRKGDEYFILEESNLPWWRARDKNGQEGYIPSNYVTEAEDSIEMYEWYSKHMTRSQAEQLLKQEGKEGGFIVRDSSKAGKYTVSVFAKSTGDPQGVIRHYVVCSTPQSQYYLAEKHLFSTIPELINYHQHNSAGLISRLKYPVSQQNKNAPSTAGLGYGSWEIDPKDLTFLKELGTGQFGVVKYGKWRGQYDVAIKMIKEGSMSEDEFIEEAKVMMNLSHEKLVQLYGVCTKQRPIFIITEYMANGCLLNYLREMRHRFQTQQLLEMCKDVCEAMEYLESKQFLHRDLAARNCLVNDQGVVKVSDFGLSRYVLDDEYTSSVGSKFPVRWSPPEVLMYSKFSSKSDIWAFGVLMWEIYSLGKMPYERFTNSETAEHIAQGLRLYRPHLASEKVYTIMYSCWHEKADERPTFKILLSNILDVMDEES

| SMILES | IC50 |
| --- | --- |
| C[C@@H](Nc1cc(Cl)cc(Cl)c1)C(=O)N1CCC[C@H](Nc2ncnc3[nH]ccc23)C1 [Compound 208] | 0.1 to 0.999 µM |
| O=C1CCc2c(ncnc2N[C@H]2CCCN(C(=O)CNc3cc(Cl)cc(Cl)c3)C2)N1 [Compound 154] | > 10 µM |
| Nc1ncnc2c1ccn2C1CCCN(C(=O)CNc2cc(Cl)cc(Cl)c2)C1 (centres unmarked) [Compound 231] | 1 to 10 µM |
| CC(=O)Nc1cc(N[C@H]2CCCN(C(=O)CNc3cc(Cl)cc(Cl)c3)C2)ncn1 [Compound 109] | > 10 µM |
| N#Cc1c(N)ncnc1N[C@H]1CCCN(C(=O)CNc2cc(Cl)cc(Cl)c2)C1 [Compound 161] | > 10 µM |
| C[C@@H](Nc1cc(Cl)cc(Cl)c1)C(=O)N1CCC2CCN(c3ncnc4[nH]ccc34)C2C1 (some centres unmarked) [Compound 56] | < 0.1 µM |
| O=C(CNc1cc(Cl)cc(C(F)(F)F)c1)N1CCC[C@H](Nc2ncnc3[nH]ncc23)C1 [Compound 178] | 1 to 10 µM |
| O=C(CNc1cc(Cl)cc(Cl)c1)N1CCC(c2ccccc2)C(Nc2ncnc3[nH]ccc23)C1 (centres unmarked) [Compound 137] | > 10 µM |
| CC[C@@H](Nc1cc(Cl)cc(Cl)c1)C(=O)N1CCCC(Nc2ncnc3[nH]ccc23)C1C (some centres unmarked) [Compound 72] | < 0.1 µM |
| O=C(CNc1cc(Cl)cc(Cl)c1)N1C[C@@H](Nc2ncnc3[nH]ccc23)C[C@@H](C(F)(F)F)C1 [Compound 122] | 0.1 to 0.999 µM |
| O=C(CNc1cc(Cl)cc(Cl)c1)N1CCC[C@H](Nc2ccnc3[nH]ccc23)C1 [Compound 169] | < 0.1 µM |
| O=C(CNc1ccccc1C(F)(F)F)N1CCC[C@H](Nc2ncnc3[nH]ccc23)C1 [Compound 197] | > 10 µM |
| CN(c1ncnc2[nH]ccc12)C1CC2CC1N(C(=O)CNc1cc(Cl)cc(Cl)c1)C2 (centres unmarked) [Compound 163] | 1 to 10 µM |
| Nc1ncnc(N[C@H]2CCCN(C(=O)CNc3cc(Cl)cc(Cl)c3)C2)c1Cl [Compound 134] | > 10 µM |
| CC1C(Nc2ncnc3[nH]ccc23)CCCN1C(=O)[C@H](Nc1cc(Cl)cc(Cl)c1)C1CC1 (some centres unmarked) [Compound 51] | 0.1 to 0.999 µM |
| O=C(CNc1ccc(F)cc1)N1CCC[C@H](Nc2ncnc3[nH]ccc23)C1 [Compound 193] | > 10 µM |
| O=C(CNc1ccccc1)N1CCCC(Nc2ncnc3[nH]ncc23)C1 (centres unmarked) [Compound 179] | 1 to 10 µM |
| CC[C@@H](Nc1cc(Cl)cc(Cl)c1)C(=O)N1CCCC(Nc2ncnc3[nH]ncc23)C1C (some centres unmarked) [Compound 65] | < 0.1 µM |
| CC1C(Nc2ncnc3[nH]ccc23)CCCN1C(=O)CNc1ccccc1S(=O)(=O)c1ccccc1 (centres unmarked) [Compound 75] | < 0.1 µM |

| SMILES | IC50 |
| --- | --- |
| CN(c1ncnc2[nH]cnc12)[C@H]1CCCN(C(=O)CNc2cc(Cl)cc(Cl)c2)C1 [Compound 151] | 0.1 to 0.999 µM |
| O=C(CNc1ccc(F)cc1)N1CCC[C@H](Nc2ncnc3[nH]ncc23)C1 [Compound 205] | > 10 µM |
| CN(c1ncnc2[nH]ncc12)C1CC2CC1N(C(=O)CNc1cc(Cl)cc(Cl)c1)C2 (centres unmarked) [Compound 141] | 0.1 to 0.999 µM |
| O=C(CNc1ccccc1S(=O)(=O)N1CCCCC1)N1CCC[C@H](Nc2ncnc3[nH]ccc23)C1 [Compound 138] | > 10 µM |
| CNc1cc(NC2CCCN(C(=O)CNc3cc(Cl)cc(Cl)c3)C2)ncn1 (centres unmarked) [Compound 83] | 0.1 to 0.999 µM |
| CC(=O)Nc1cc(N(C)[C@H]2CCCN(C(=O)CNc3cc(Cl)cc(Cl)c3)C2)ncn1 [Compound 128] | > 10 µM |
| CCC[C@@H](Nc1cccc(Cl)c1)C(=O)N1CCC2CCN(c3ncnc4[nH]ccc34)C2C1 (some centres unmarked) [Compound 102] | < 0.1 µM |
| CN(c1ncnc2[nH]ncc12)[C@@H]1CCN(C(=O)CNc2cc(Cl)cc(Cl)c2)C1 [Compound 131] | 1 to 10 µM |
| Nc1nc(N[C@H]2CCCN(C(=O)CNc3cc(Cl)cc(Cl)c3)C2)c2cc[nH]c2n1 [Compound 157] | > 10 µM |
| O=CNc1cnc(Br)cc1N(C=O)[C@H]1CCCN(C(=O)CNc2cc(Cl)cc(Cl)c2)C1 [Compound 120] | > 10 µM |
| O=C(CNc1cc(Cl)cc(Cl)c1)N1CCCC(N(CCc2ccccc2)c2ncnc3[nH]ccc23)C1 (centres unmarked) [Compound 97] | > 10 µM |
| CN(c1ncnc2[nH]ncc12)[C@H]1CCCN(C(=O)CNc2cc(C(F)(F)F)cc(C(F)(F)F)c2)C1 [Compound 150] | > 10 µM |
| O=C(CNc1cc(C(F)(F)F)cc(C(F)(F)F)c1)N1CCC[C@H](Nc2ncnc3[nH]ncc23)C1 [Compound 186] | > 10 µM |
| Nc1nccc(N[C@H]2CCCN(C(=O)CNc3cc(Cl)cc(Cl)c3)C2)n1 [Compound 164] | > 10 µM |
| CC1C(N(C)c2ncnc(N)c2F)CCCN1C(=O)CNc1cc(Cl)cc(Cl)c1 (centres unmarked) [Compound 49] | < 0.1 µM |
| O=C(CNc1ccc(C(F)(F)F)cc1)N1CCC[C@H](Nc2ncnc3[nH]ncc23)C1 [Compound 198] | > 10 µM |
| O=C(CNc1ccccc1C(F)(F)F)N1CCC[C@H](Nc2ncnc3[nH]ncc23)C1 [Compound 195] | > 10 µM |
| CN(c1ncnc2[nH]ncc12)[C@H]1CCCN(C(=O)CNc2cc(Cl)cc(Cl)c2)C1 [Compound 212] | 0.1 to 0.999 µM |
| NC(=O)c1cnc2[nH]ccc2c1NC1CCCN(C(=O)CNc2cc(F)cc(Cl)c2)C1 (centres unmarked) [Compound 229] | < 0.1 µM |

| SMILES | IC50 |
| --- | --- |
| CC1C(Nc2ncnc3[nH]ccc23)CCCN1C(=O)CNc1ccccc1S(=O)(=O)C1CCCC1 (centres unmarked) [Compound 73] | < 0.1 µM |
| O=C(CNc1cc(Cl)cc(Cl)c1)N1CCC[C@@H](Nc2ncnc3[nH]cnc23)C1 [Compound 10] | 1 to 10 µM |
| Nc1ncnc2c1ncn2C1CCCN(C(=O)CNc2cc(Cl)cc(Cl)c2)C1 (centres unmarked) [Compound 233] | > 10 µM |
| O=C(CNc1ccccc1Cl)N1CCC[C@H](Nc2ncnc3[nH]ncc23)C1 [Compound 202] | > 10 µM |
| CC1CCC(NCC(=O)N2CCC[C@H](Nc3ncnc4[nH]ccc34)C2)CC1 (some centres unmarked) [Compound 139] | > 10 µM |
| O=C(Nc1cc(Cl)cc(Cl)c1)C(=O)N1CCCC(Nc2ncnc3[nH]ccc23)C1 (centres unmarked) [Compound 225] | > 10 µM |
| CCC[C@@H](Nc1cc(Cl)cc(Cl)c1)C(=O)N1CCC2CCN(c3ncnc4[nH]ccc34)C2C1 (some centres unmarked) [Compound 101] | < 0.1 µM |
| O=C(CNc1cc(Cl)cc(Cl)c1)N1CCC[C@H](Nc2ncnc3[nH]cnc23)C1 [Compound 175] | 0.1 to 0.999 µM |
| CN(c1ncnc(N)c1C(N)=O)[C@H]1CCCN(C(=O)CNc2cc(Cl)cc(Cl)c2)C1 [Compound 125] | > 10 µM |
| CC1C(Nc2ncnc3[nH]ncc23)CCCN1C(=O)CNc1cc(Cl)cc(C(F)(F)F)c1 (centres unmarked) [Compound 58] | < 0.1 µM |
| CN(c1ncnc2[nH]ncc12)[C@H]1CCCN(C(=O)CNc2cc(Cl)cc(C(F)(F)F)c2)C1 [Compound 145] | 1 to 10 µM |
| O=C(CNc1cccc(Cl)c1)N1CCCC(Nc2ncnc3[nH]ccc23)C1C(F)(F)F (centres unmarked) [Compound 20] | < 0.1 µM |
| C[C@@H]1[C@@H](Nc2ncnc3[nH]ncc23)CCCN1C(=O)CNc1cc(Cl)cc(Cl)c1 [Compound 28] | 0.1 to 0.999 µM |
| O=C(CNc1cc(Cl)cc(Cl)c1)N1CCC[C@@H](Nc2ncnc3[nH]cc(F)c23)C1 [Compound 6] | 0.1 to 0.999 µM |
| O=CNc1cnc(Br)cc1N[C@H]1CCCN(C(=O)CN(C=O)c2cc(Cl)cc(Cl)c2)C1 [Compound 121] | > 10 µM |
| CCC[C@@H](Nc1cc(Cl)cc(Cl)c1)C(=O)N1CCCC(Nc2ncnc3[nH]ncc23)C1C (some centres unmarked) [Compound 61] | < 0.1 µM |
| O=C(CNc1ccccc1F)N1CCC[C@H](Nc2ncnc3[nH]ncc23)C1 [Compound 203] | > 10 µM |
| CC(C)N(c1ncnc2[nH]ccc12)C1CCCN(C(=O)CNc2cc(Cl)cc(Cl)c2)C1 (centres unmarked) [Compound 84] | 0.1 to 0.999 µM |
